Some test systems named below: Mtb. Praha 4 (MDR-TB); Mtb. Praha 131 (XDR-TB); Mtb. 7357/1998 (MDR-TB); Mtb. 9449/2007 (MDR-TB); Mtb. 8666/2010 (MDR-TB); Mtb. Praha 1 (MDR-TB); Mtb. 234/2005 (MDR-TB).
Assay in all cases: microbe, parasite or virus in culture
Holding throughout (assay type): cell-based, Mycobacterium tuberculosis
Conditions in all cases: for MIC: Mycobacterium tuberculosis

[1] abbreviates: 336 h, read-out: MIC Mtb. Praha 4 14 d.
Where [2] appears, read: 504 h, read-out: MIC Mtb. Praha 4 21 d.
[3] abbreviates: 336 h, read-out: MIC Mtb. Praha 131 14 d.
Setting [4] is: 504 h, read-out: MIC Mtb. Praha 131 21 d.
The mark [5] stands for this setting: 336 h, read-out: MIC Mtb. 7357/1998 14 d.
Where [6] appears, read: 504 h, read-out: MIC Mtb. 7357/1998 21 d.
Setting [7] is: 336 h, read-out: MIC Mtb. 9449/2007 14 d.
Where [8] appears, read: 504 h, read-out: MIC Mtb. 9449/2007 21 d.
[9] abbreviates: 336 h, read-out: MIC Mtb. 8666/2010 14 d.
[10] abbreviates: 504 h, read-out: MIC Mtb. 8666/2010 21 d.
Setting [11] is: 336 h, read-out: MIC Mtb. Praha 1 14 d.
Where [12] appears, read: 504 h, read-out: MIC Mtb. Praha 1 21 d.
Setting [13] is: 336 h, read-out: MIC Mtb. 234/2005 14 d.
[14] abbreviates: 504 h, read-out: MIC Mtb. 234/2005 21 d.

Values after ≈ are worked out from the molar mass of the structure shown. Where two headings read alike, the source gives them in different places.

As to “5-Isopropyl-2-methylphenyl (E)-2-(2-isonicotinoylhydrazineylidene)propanoate [3k]”, the “MIC Mtb. Praha 4 14 d” value against Mtb. Praha 4 (MDR-TB) (14 d incubation) is given as 16 µM. In the test with Mtb. Praha 4 (MDR-TB) (21 d incubation), the “MIC Mtb. Praha 4 21 d” value is on record as 32 µM. For the same molecule, the “MIC Mtb. Praha 131 14 d” value with Mtb. Praha 131 (XDR-TB) (14 d incubation) was 32 µM. Besides, the “MIC Mtb. Praha 131 21 d” value against Mtb. Praha 131 (XDR-TB) (21 d incubation) is recorded as 64 µM. The “MIC Mtb. 7357/1998 14 d” value in the test with Mtb. 7357/1998 (MDR-TB) (14 d incubation) is on record as 32 µM. In the test with Mtb. 7357/1998 (MDR-TB) (21 d incubation), the “MIC Mtb. 7357/1998 21 d” value worked out at 32 µM. In addition, in the test on Mtb. 9449/2007 (MDR-TB) (14 d incubation), the “MIC Mtb. 9449/2007 14 d” value is given as 32 µM. The “MIC Mtb. 9449/2007 21 d” value with Mtb. 9449/2007 (MDR-TB) (21 d incubation) stood at 32 µM. For the same molecule, the “MIC Mtb. 8666/2010 14 d” value with Mtb. 8666/2010 (MDR-TB) (14 d incubation) is reported as 16 µM. Also, the “MIC Mtb. 8666/2010 21 d” value against Mtb. 8666/2010 (MDR-TB) (21 d incubation) turned out to be 32 µM. The “MIC Mtb. Praha 1 14 d” value in the test on Mtb. Praha 1 (MDR-TB) (14 d incubation) is 125 µM. Besides, in the test on Mtb. Praha 1 (MDR-TB) (21 d incubation), the “MIC Mtb. Praha 1 21 d” value was determined as 125 µM. In addition, the “MIC Mtb. 234/2005 14 d” value in the test on Mtb. 234/2005 (MDR-TB) (14 d incubation) came out at 32 µM. For the same molecule, the “MIC Mtb. 234/2005 21 d” value in the test with Mtb. 234/2005 (MDR-TB) (21 d incubation) is on record as 32 µM.

Regarding `C/C(=N\NC(=O)c1ccncc1)C(=O)Oc1ccccc1` [3b, Phenyl (E)-2-(2-isonicotinoylhydrazineylidene)propanoate], the MIC with Mtb. Praha 4 (MDR-TB) (setting [1]), in the test on Mtb. Praha 4 (MDR-TB) (setting [2]), with Mtb. Praha 131 (XDR-TB) (setting [3]), with Mtb. Praha 131 (XDR-TB) (setting [4]), in the test on Mtb. 7357/1998 (MDR-TB) (setting [5]) and in the test with Mtb. 7357/1998 (MDR-TB) (setting [6]) was 16 µM (≈ 4.53 µg/mL) throughout. Further, the MIC came to 32 µM (≈ 9.07 µg/mL) in the test with Mtb. 9449/2007 (MDR-TB) (setting [7]); 32 µM (≈ 9.07 µg/mL) with Mtb. 9449/2007 (MDR-TB) (setting [8]); 16 µM (≈ 4.53 µg/mL) in the test on Mtb. 8666/2010 (MDR-TB) (setting [9]); 16 µM (≈ 4.53 µg/mL) in the test on Mtb. 8666/2010 (MDR-TB) (setting [10]); 16 µM (≈ 4.53 µg/mL) with Mtb. Praha 1 (MDR-TB) (setting [11]); 16 µM (≈ 4.53 µg/mL) in the test on Mtb. Praha 1 (MDR-TB) (setting [12]). Besides, the MIC in the test with Mtb. 234/2005 (MDR-TB) (setting [13]) and in the test with Mtb. 234/2005 (MDR-TB) (setting [14]) was 32 µM (≈ 9.07 µg/mL) each time.

As for `COc1ccc(OC(=O)/C(C)=N/NC(=O)c2ccncc2)cc1` [3d, 4-Methoxyphenyl (E)-2-(2-isonicotinoylhydrazineylidene)propanoate], the MIC worked out at 16 µM (≈ 5.01 µg/mL) in the test on Mtb. Praha 4 (MDR-TB) (setting [1]); 32 µM (≈ 10 µg/mL) in the test with Mtb. Praha 4 (MDR-TB) (setting [2]); 8 µM (≈ 2.51 µg/mL) with Mtb. Praha 131 (XDR-TB) (setting [3]); 16 µM (≈ 5.01 µg/mL) in the test on Mtb. Praha 131 (XDR-TB) (setting [4]); 16 µM (≈ 5.01 µg/mL) with Mtb. 7357/1998 (MDR-TB) (setting [5]); 16 µM (≈ 5.01 µg/mL) in the test on Mtb. 7357/1998 (MDR-TB) (setting [6]). The MIC in the test with Mtb. 9449/2007 (MDR-TB) (setting [7]) is 16 µM (≈ 5.01 µg/mL); in the test on Mtb. 9449/2007 (MDR-TB) (setting [8]) it was 16 µM (≈ 5.01 µg/mL); in the test with Mtb. 8666/2010 (MDR-TB) (setting [9]), 8 µM (≈ 2.51 µg/mL); in the test on Mtb. 8666/2010 (MDR-TB) (setting [10]), 16 µM (≈ 5.01 µg/mL); in the test with Mtb. Praha 1 (MDR-TB) (setting [11]), 8 µM (≈ 2.51 µg/mL); in the test on Mtb. Praha 1 (MDR-TB) (setting [12]) it was 16 µM (≈ 5.01 µg/mL). For the same molecule, the MIC with Mtb. 234/2005 (MDR-TB) (setting [13]) stood at 16 µM (≈ 5.01 µg/mL); with Mtb. 234/2005 (MDR-TB) (setting [14]), 32 µM (≈ 10 µg/mL).

For the molecule `C/C(=N\NC(=O)c1ccncc1)C(=O)Oc1ccc(Cl)cc1` [3g, 4-Chlorophenyl (E)-2-(2-isonicotinoylhydrazineylidene)propanoate], the MIC is 16 µM (≈ 5.08 µg/mL) in the test with Mtb. Praha 4 (MDR-TB) (setting [1]); 16 µM (≈ 5.08 µg/mL) with Mtb. Praha 4 (MDR-TB) (setting [2]); 8 µM (≈ 2.54 µg/mL) with Mtb. Praha 131 (XDR-TB) (setting [3]); 8 µM (≈ 2.54 µg/mL) in the test with Mtb. Praha 131 (XDR-TB) (setting [4]); 16 µM (≈ 5.08 µg/mL) in the test on Mtb. 7357/1998 (MDR-TB) (setting [5]); 16 µM (≈ 5.08 µg/mL) with Mtb. 7357/1998 (MDR-TB) (setting [6]). Besides, the MIC in the test on Mtb. 9449/2007 (MDR-TB) (setting [7]) was 16 µM (≈ 5.08 µg/mL); in the test on Mtb. 9449/2007 (MDR-TB) (setting [8]), 16 µM (≈ 5.08 µg/mL); with Mtb. 8666/2010 (MDR-TB) (setting [9]), 8 µM (≈ 2.54 µg/mL); in the test on Mtb. 8666/2010 (MDR-TB) (setting [10]), 16 µM (≈ 5.08 µg/mL); in the test with Mtb. Praha 1 (MDR-TB) (setting [11]), 8 µM (≈ 2.54 µg/mL); in the test on Mtb. Praha 1 (MDR-TB) (setting [12]), 8 µM (≈ 2.54 µg/mL). The MIC with Mtb. 234/2005 (MDR-TB) (setting [13]) was found to be 16 µM (≈ 5.08 µg/mL); in the test with Mtb. 234/2005 (MDR-TB) (setting [14]), 32 µM (≈ 10.2 µg/mL).

Consider `C/C(=N\NC(=O)c1ccncc1)C(=O)Oc1cccc2ccccc12` [3i, Naphthalen-1-yl (E)-2-(2-isonicotinoylhydrazineylidene)propanoate], for which the MIC with Mtb. Praha 4 (MDR-TB) (setting [1]) is 16 µM (≈ 5.33 µg/mL); with Mtb. Praha 4 (MDR-TB) (setting [2]), 32 µM (≈ 10.7 µg/mL); in the test with Mtb. Praha 131 (XDR-TB) (setting [3]) it was 32 µM (≈ 10.7 µg/mL); in the test with Mtb. Praha 131 (XDR-TB) (setting [4]), 32 µM (≈ 10.7 µg/mL); in the test with Mtb. 7357/1998 (MDR-TB) (setting [5]) it was 16 µM (≈ 5.33 µg/mL); with Mtb. 7357/1998 (MDR-TB) (setting [6]), 32 µM (≈ 10.7 µg/mL). Moreover, the MIC in the test on Mtb. 9449/2007 (MDR-TB) (setting [7]) was determined as 32 µM (≈ 10.7 µg/mL); with Mtb. 9449/2007 (MDR-TB) (setting [8]), 32 µM (≈ 10.7 µg/mL); with Mtb. 8666/2010 (MDR-TB) (setting [9]), 16 µM (≈ 5.33 µg/mL); with Mtb. 8666/2010 (MDR-TB) (setting [10]), 16 µM (≈ 5.33 µg/mL); in the test with Mtb. Praha 1 (MDR-TB) (setting [11]), 64 µM (≈ 21.3 µg/mL); in the test with Mtb. Praha 1 (MDR-TB) (setting [12]), 125 µM (≈ 41.7 µg/mL). The MIC with Mtb. 234/2005 (MDR-TB) (setting [13]) was determined as 16 µM (≈ 5.33 µg/mL); with Mtb. 234/2005 (MDR-TB) (setting [14]) it was 32 µM (≈ 10.7 µg/mL).

`C/C(=N\NC(=O)c1ccncc1)C(=O)Oc1ccc2ccccc2c1` [3j, Naphthalen-2-yl (E)-2-(2-isonicotinoylhydrazineylidene)propanoate]: the MIC in the test with Mtb. Praha 4 (MDR-TB) (setting [1]), with Mtb. Praha 4 (MDR-TB) (setting [2]), in the test on Mtb. Praha 131 (XDR-TB) (setting [3]), in the test with Mtb. Praha 131 (XDR-TB) (setting [4]), with Mtb. 7357/1998 (MDR-TB) (setting [5]) and in the test on Mtb. 7357/1998 (MDR-TB) (setting [6]) was 32 µM (≈ 10.7 µg/mL) each time. Moreover, the MIC turned out to be 32 µM (≈ 10.7 µg/mL) in the test on Mtb. 9449/2007 (MDR-TB) (setting [7]); 32 µM (≈ 10.7 µg/mL) with Mtb. 9449/2007 (MDR-TB) (setting [8]); 16 µM (≈ 5.33 µg/mL) in the test with Mtb. 8666/2010 (MDR-TB) (setting [9]); 32 µM (≈ 10.7 µg/mL) in the test on Mtb. 8666/2010 (MDR-TB) (setting [10]); 125 µM (≈ 41.7 µg/mL) in the test on Mtb. Praha 1 (MDR-TB) (setting [11]); 125 µM (≈ 41.7 µg/mL) in the test on Mtb. Praha 1 (MDR-TB) (setting [12]). The MIC in the test on Mtb. 234/2005 (MDR-TB) (setting [13]) was 16 µM (≈ 5.33 µg/mL); in the test with Mtb. 234/2005 (MDR-TB) (setting [14]), 32 µM (≈ 10.7 µg/mL).

Source of the values: article PMC8703412 (Pharmaceuticals, 2021).
